Each structure is given as a SMILES string.

The record followed here is patent publication US20170223953A1, “MICROBICIDAL COMPOSITION” (Dow Global Technologies LLC, priority 2016, published 2017).

This experiment concerns Desulfovibrio longus ATCC 51456. The experiment is described as follows: Biocidal efficacy (complete bacterial kill in 2 hours) and Synergy Index against anaerobic sulfate-reducing bacteria. The class given is cell-based. Conditions: 35° C. The procedure: Surfactants and biocides were evaluated for synergy by determining the synergy index (S.I.) of the combination. Synergy index was calculated based on the concentration required to achieve a certain level of bacterial kill when the two antimicrobial compounds (A and B) are used alone and in combinations. The tests organisms were anaerobic sulfate-reducing bacteria (Desulfovibrio longus ATCC #51456). Inside an anaerobic chamber (Bactron anaerobic chamber), a deoxygenated sterile salt solution (3.1183 g of NaCl, 1.3082 mg of NaHCO3, 47.70 mg of KCl, 72.00 mg of CaCl2, 54.49 mg of MgSO4, 172.28 mg of Na2SO4, 43.92 mg of Na2CO3 in 1 L water) was inoculated with Desulfovibrio longus ATCC 51456 to a final bacterial concentration of 10^6 to 10^7 CFU/mL. Aliquots of this cell suspension were then treated with glutaraldehyde, and each of Surf A and B at selected active concentrations. After incubation at 35° C. for 2 hours, viable bacteria in the aliquots were enumerated using serial dilution method. […] SI is calculated as follows: Ca/CA+Cb/CB=Synergy Index (“SI”) Wherein: • Ca=Concentration of biocide A required to achieve a certain level of bacterial kill when used in combination with B • CA=Concentration of biocide A required to achieve a certain level of bacterial kill when used alone • Cb=Concentration of biocide B required to achieve a certain level of bacterial kill when used in combination with A • CB=Concentration of biocide B required to achieve a certain level of bacterial kill when used alone When the sum of Ca/CA and Cb/CB is greater than one, antagonism is indicated.

As for `O=CCCCC=O` [Glut, glutaraldehyde], the “Concentration (active ppm) for complete bacterial kill in 2 hours, Glut” value reads like this: (Table 1, Glut alone or in combination with Surf. A, 10^6 to 10^7 CFU/mL) 8.8 active ppm; (Table 2, Glut alone or in combination with Surf. B) 19.8 active ppm; (Table 3, Glut alone or in combination with Surf. C) 19.8 active ppm.
